Reference: US6737383B1, “Herbicidal oxadiazolidines” (priority 1999, dated 2004)

Assays:
wild oat = experiment: Test B pre/postemergence wild oat; format: in vivo, Avena fatua
In short: (§1)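 Response is a visual 0-to-10 score relative to untreated plants, where 0 means no effect and 10 means complete control, taken twelve to sixteen days after application. Treatments went onto soil at planting and onto foliage of 1- to 4-leaf plants, using a surfactant-containing non-phytotoxic solvent.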

surinam grass = experiment: Test B pre/postemergence surinam grass; format: in vivo, Brachiaria decumbens
In short: as §1

rape = experiment: Test B pre/postemergence rape; format: in vivo, Brassica napus
In short: as §1

soybean = experiment: Test B pre/postemergence soybean; format: in vivo, Glycine max
In short: as §1

rice = experiment: Test B flood test rice; format: in vivo, Oryza sativa
In short: (§2)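 Flood test on plants grown to the 2-leaf stage; treated plants kept in greenhouse twelve to sixteen days, then visually rated against controls on a 0 (no effect) to 10 (complete control) scale.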

corn = experiment: Test B pre/postemergence corn; format: in vivo, Zea mays
In short: as §1

sugar beet = experiment: Test B pre/postemergence sugar beet; format: in vivo, Beta vulgaris
In short: as §1

crabgrass = experiment: Test B pre/postemergence crabgrass; format: in vivo, Digitaria sanguinalis
In short: as §1

velvetleaf = experiment: Test B pre/postemergence velvetleaf; format: in vivo, Abutilon theophrasti
In short: as §1

smallflower flatsedge = experiment: Test B flood test smallflower flatsedge; format: in vivo, Cyperus difformis
In short: as §2

wheat = experiment: Test B pre/postemergence wheat; format: in vivo, Triticum aestivum
In short: as §1

morningglory = experiment: Test B pre/postemergence morningglory; format: in vivo, Ipomoea hederacea
In short: as §1

giant foxtail = experiment: Test B pre/postemergence giant foxtail; format: in vivo, Setaria faberii
In short: as §1

cocklebur = experiment: Test B pre/postemergence cocklebur; format: in vivo, Xanthium strumarium
In short: as §1

blackgrass = experiment: Test B pre/postemergence blackgrass; format: in vivo, Alopecurus myosuroides
In short: as §1

pigweed = experiment: Test B pre/postemergence pigweed; format: in vivo, Amaranthus retroflexus
In short: as §1

[1] = Postemergence, Rate 125 g/ha, scale of 0 to 10 where 0 is no effect and 10 is complete control
[2] = Postemergence, Rate 250 g/ha, scale of 0 to 10, 0 is no effect, 10 is complete control
[3] = Postemergence, Rate 1000 g/ha, scale 0 to 10 (0 no effect, 10 complete control)
[4] = Preemergence, Rate 125 g/ha, scale of 0 to 10 where 0 is no effect and 10 is complete control
[5] = Preemergence, Rate 250 g/ha, scale 0 to 10 (0 no effect, 10 complete control)
[6] = Preemergence, Rate 500 g/ha, scale of 0 to 10 where 0 is no effect and 10 is complete control
[7] = Rate 1000 g/ha, Preemergence, scale 0 to 10 (0 no effect, 10 complete control)
[8] = Postemergence, Rate 500 g/ha, scale of 0 to 10 where 0 is no effect and 10 is complete control
[9] = Pre-emergence, Rate 1000 g/ha, scale 0 to 10 (0 no effect, 10 complete control)
[10] = Rate 125 g/ha, under heading Pre-emergence, flood test species, visual evaluation after twelve to sixteen days
[11] = Rate 250 g/ha, Pre-emergence (flood test species), scale 0 to 10, 0 is no effect, 10 is complete control
[12] = Rate 500 g/ha, Pre-emergence section of Table B, 0 to 10 scale (0 no effect, 10 complete control)

CCOP(=O)(OCC)C(C)n1c(=O)on(C(=O)N(c2ccc(F)cc2)C(C)C)c1=O (centres unmarked) [Compound 617]
5: B. signalgrass plant response rating (surinam grass; [6]) | Plant response rating, Crabgrass (crabgrass; [5])
7: Soybean plant response rating (soybean; [3]) | Crabgrass plant response rating (crabgrass; [3])
6: Morningglory plant response rating (morningglory; [3]) | Giant foxtail plant response rating (giant foxtail; [3]) | Blackgrass plant response rating (blackgrass; [3]) | Plant response rating, Blackgrass (blackgrass; [5]) | Blackgrass plant response rating (blackgrass; [6])
4: Plant response rating, B. signalgrass (surinam grass; [5]) | Giant foxtail plant response rating (giant foxtail; [2])
3: Plant response rating, Wild oats (wild oat; [6]) | B. signalgrass plant response rating (surinam grass; [3]) | Soybean plant response rating (soybean; [2]) | Plant response rating, Morningglory (morningglory; [8]) | Cocklebur plant response rating (cocklebur; [3])
0: Plant response rating, Wild oats (wild oat; [1]) | Wild oats plant response rating (wild oat; [2]) | Wild oats plant response rating (wild oat; [3]) | Wild oats plant response rating (wild oat; [4]) | Plant response rating, B. signalgrass (surinam grass; [1]) | B. signalgrass plant response rating (surinam grass; [2]) | Plant response rating, B. signalgrass (surinam grass; [8]) | B. signalgrass plant response rating (surinam grass; [4]) | Plant response rating, Rape (rape; [1]) | Rape plant response rating (rape; [2]) | Plant response rating, Rape (rape; [8]) | Rape plant response rating (rape; [3]) | Rape plant response rating (rape; [4]) | Plant response rating, Rape (rape; [5]) | Plant response rating, Rape (rape; [6]) | Plant response rating, Rape (rape; [7]) | Soybean plant response rating (soybean; [4]) | Plant response rating, Soybean (soybean; [5]) | Plant response rating, Soybean (soybean; [6]) | Rice plant response rating (rice; [9]) | Rice plant response rating (0 to 10 scale, 0 is no effect, 10 is complete control) (rice; [10]) | Rice plant response rating (rice; [11]) | Rice plant response rating (rice; [12]) | Plant response rating, Corn (corn; [1]) | Corn plant response rating (corn; [2]) | Plant response rating, Corn (corn; [8]) | Corn plant response rating (corn; [3]) | Corn plant response rating (corn; [4]) | Plant response rating, Corn (corn; [5]) | Plant response rating, Corn (corn; [6]) | Plant response rating, Corn (corn; [7]) | Plant response rating, Sugarbeets (sugar beet; [1]) | Sugarbeets plant response rating (sugar beet; [2]) | Sugarbeets plant response rating (sugar beet; [3]) | Sugarbeets plant response rating (sugar beet; [4]) | Plant response rating, Sugarbeets (sugar beet; [5]) | Plant response rating, Sugarbeets (sugar beet; [6]) | Plant response rating, Sugarbeets (sugar beet; [7]) | Plant response rating, Crabgrass (crabgrass; [1]) | Plant response rating, Crabgrass (crabgrass; [8]) | Plant response rating, Velvetleaf (velvetleaf; [1]) | Velvetleaf plant response rating (velvetleaf; [2]) | Velvetleaf plant response rating (velvetleaf; [4]) | Plant response rating, Velvetleaf (velvetleaf; [5]) | Plant response rating, Velvetleaf (velvetleaf; [6]) | Plant response rating, Velvetleaf (velvetleaf; [7]) | S. Flatsedge plant response rating (smallflower flatsedge; [9]) | S. Flatsedge plant response rating (0 to 10 scale, 0 is no effect, 10 is complete control) (smallflower flatsedge; [10]) | S. Flatsedge plant response rating (smallflower flatsedge; [11]) | S. Flatsedge plant response rating (smallflower flatsedge; [12]) | Plant response rating, Wheat (wheat; [1]) | Wheat plant response rating (wheat; [2]) | Wheat plant response rating (wheat; [3]) | Wheat plant response rating (wheat; [4]) | Plant response rating, Wheat (wheat; [5]) | Plant response rating, Wheat (wheat; [6]) | Plant response rating, Morningglory (morningglory; [1]) | Morningglory plant response rating (morningglory; [2]) | Morningglory plant response rating (morningglory; [4]) | Plant response rating, Morningglory (morningglory; [5]) | Plant response rating, Morningglory (morningglory; [6]) | Plant response rating, Morningglory (morningglory; [7]) | Plant response rating, Giant foxtail (giant foxtail; [1]) | Plant response rating, Giant foxtail (giant foxtail; [8]) | Plant response rating, Cocklebur (cocklebur; [1]) | Cocklebur plant response rating (cocklebur; [2]) | Cocklebur plant response rating (cocklebur; [4]) | Plant response rating, Cocklebur (cocklebur; [5]) | Plant response rating, Cocklebur (cocklebur; [6]) | Plant response rating, Cocklebur (cocklebur; [7]) | Plant response rating, Blackgrass (blackgrass; [1]) | Blackgrass plant response rating (blackgrass; [2]) | Plant response rating, Blackgrass (blackgrass; [8]) | Blackgrass plant response rating (blackgrass; [4]) | Plant response rating, Redroot pigweed (pigweed; [1]) | Redroot pigweed plant response rating (pigweed; [2]) | Redroot pigweed plant response rating (pigweed; [3]) | Redroot pigweed plant response rating (pigweed; [4]) | Plant response rating, Redroot pigweed (pigweed; [5]) | Plant response rating, Redroot pigweed (pigweed; [6]) | Plant response rating, Redroot pigweed (pigweed; [7])
9: Plant response rating, Wild oats (wild oat; [7]) | Giant foxtail plant response rating (giant foxtail; [4]) | Plant response rating, Giant foxtail (giant foxtail; [5]) | Plant response rating, Giant foxtail (giant foxtail; [6])
2: Plant response rating, Wild oats (wild oat; [5]) | Crabgrass plant response rating (crabgrass; [2]) | Velvetleaf plant response rating (velvetleaf; [3]) | Plant response rating, Wheat (wheat; [7]) | Plant response rating, Cocklebur (cocklebur; [8])
8: Plant response rating, B. signalgrass (surinam grass; [7]) | Plant response rating, Crabgrass (crabgrass; [6]) | Plant response rating, Crabgrass (crabgrass; [7])
1: Plant response rating, Soybean (soybean; [1]) | Plant response rating, Soybean (soybean; [7])
10: Plant response rating, Giant foxtail (giant foxtail; [7]) | Plant response rating, Blackgrass (blackgrass; [7])
